The values below come from ChEMBL document CHEMBL1152779, “Synthesis and applications of polyamine amino acid residues: improving the bioactivity of an analgesic neuropeptide, neurotensin” (J Med Chem, 2009).

The source made the active and inactive calls. No cut-off for these calls is given here. Numbered stars: 1 amine (or outer) side, 2 acyl side, 3 side chain; on linkers, the order of the positions; unused ones are H or OH. Square brackets hold non-standard residues; d marks the D form. Peptide text beside a SMILES is read from it. X1 = NCCCNCCCCNCCCNCCCNCCCC[C@H](N[*:1])C(=O)[*:2]; X2 = O=C([C@H](Cc1cccc2cc[nH]c12)N[*:1])[*:2]; NMeR = CN[C@@H](CCCNC(=N)N)C(=O)O; Tle = CC(C)(C)[C@H](N)C(=O)O

Test [1] deals with Neurotensin receptor type 1 (Homo sapiens, UniProt P30989). Kind of test: Binding affinity to human recombinant NTS1 in HEK293T cells by competitive binding assay. Format: cell-based, HEK-293T.
Neurotensin receptor type 1, sequence (P30989 whole entry): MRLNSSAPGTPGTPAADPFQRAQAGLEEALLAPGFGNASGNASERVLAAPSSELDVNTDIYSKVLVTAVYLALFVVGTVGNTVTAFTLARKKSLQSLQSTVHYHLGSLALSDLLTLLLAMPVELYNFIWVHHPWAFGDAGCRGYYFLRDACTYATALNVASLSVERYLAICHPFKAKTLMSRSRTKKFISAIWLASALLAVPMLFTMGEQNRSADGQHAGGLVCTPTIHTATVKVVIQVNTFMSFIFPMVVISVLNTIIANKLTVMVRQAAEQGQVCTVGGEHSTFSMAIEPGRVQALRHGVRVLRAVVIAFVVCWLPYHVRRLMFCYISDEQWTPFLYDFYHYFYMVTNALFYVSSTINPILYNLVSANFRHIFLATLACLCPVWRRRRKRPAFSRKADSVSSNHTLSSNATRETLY
Test [2] relates to Mus musculus. Kind of test: Analgesic activity against formalin-induced paw pain in mouse assessed as elimination of inflammatory phase at 4 mg/kg, ip 1 hr before formalin challenge. Format: functional, organism-based. More on the design: dose 4 mg/kg.
Test [3] deals with Mus musculus. Description: Analgesic activity against formalin-induced paw pain in mouse assessed as effect on duration of paw licking at 4 mg/kg, ip 1 hr before formalin challenge. Type of test: functional, organism-based. Further details: dose 4 mg/kg.

Regarding `CN[C@@H](CCCN=C(N)N)C(=O)N[C@@H](CCCCN)C(=O)N1CCC[C@H]1C(=O)N[C@@H](Cc1cccc2cc[nH]c12)C(=O)N[C@H](C(=O)N[C@@H](CC(C)C)C(=O)O)C(C)(C)C` (H-[NMeR]KP[X2][Tle]L-OH), in test [1], the equilibrium dissociation constant (Kd) (as a rule, the concentration at which binding is half-saturated) came out at 1.55 nM. Take `CC[C@H](C)[C@H](NC(=O)[C@H](Cc1ccc(O)cc1)NC(=O)[C@@H]1CCCN1C(=O)[C@H](CCCCN)NC(=O)[C@H](CCCCN)NC(=O)[C@H](CCCCNCCCNCCCNCCCCNCCCN)NC(C)=O)C(=O)N[C@@H](CC(C)C)C(=O)O` (Ac-[X1]KKPYIL-OH): the result in the test on Mus musculus [2] and in the test with Mus musculus [3] was Active.

Regarding `CC[C@H](C)[C@@H]1NC(=O)[C@H](Cc2ccc(O)cc2)NC(=O)[C@@H]2CCCN2C(=O)[C@H](CCCCN)NC(=O)[C@H](CCCCN)NC(=O)[C@H](CC(C)C)NC(=O)[C@H]([C@@H](C)CC)NC(=O)[C@H](Cc2ccc(O)cc2)NC(=O)[C@@H]2CCCN2C(=O)[C@H](CCCCN)NC(=O)[C@H](CCCCN)NC(=O)[C@H](CC(C)C)NC1=O` (cyclo(ILKKPYILKKPY)), the Kd in test [1] was found to be 150 nM.
